Results: patent publication US20240101572A1, “DIHYDROOXADIAZINONE COMPOUND AND PHARMACEUTICAL USE THEREOF” (Japan Tobacco Inc., priority 2022, published 2024)

Columns and labels:
full-length human PLD1 = full-length human PLD1 (Homo sapiens (Human), UniProt Q13393); assay: Evaluation of human PLD1 enzyme inhibitory activity (Amplex Red / choline oxidase fluorescence); type: biochemical; details: full-length human PLD1 enzyme; read-out: PLD1 IC50
Method in brief: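 Fluorescence read-out couples choline to Amplex Red via choline oxidase and peroxidase after a 60 min room-temperature reaction. Enzyme: FLAG-tagged full-length human PLD1 from Expi293F cells, anti-FLAG purified; substrate diheptanoyl phosphatidylcholine; HEPES pH 7.5 assay buffer with 0.01% NP-40, 0.1% BSA, 5% DMSO final.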

full-length human PLD2 = full-length human PLD2 (Homo sapiens (Human), UniProt O14939); assay: Evaluation of human PLD2 enzyme inhibitory activity (Amplex Red / choline oxidase fluorescence); type: biochemical; details: full-length human PLD2 enzyme; read-out: PLD2 IC50
Sequence of full-length human PLD2 (O14939 whole entry): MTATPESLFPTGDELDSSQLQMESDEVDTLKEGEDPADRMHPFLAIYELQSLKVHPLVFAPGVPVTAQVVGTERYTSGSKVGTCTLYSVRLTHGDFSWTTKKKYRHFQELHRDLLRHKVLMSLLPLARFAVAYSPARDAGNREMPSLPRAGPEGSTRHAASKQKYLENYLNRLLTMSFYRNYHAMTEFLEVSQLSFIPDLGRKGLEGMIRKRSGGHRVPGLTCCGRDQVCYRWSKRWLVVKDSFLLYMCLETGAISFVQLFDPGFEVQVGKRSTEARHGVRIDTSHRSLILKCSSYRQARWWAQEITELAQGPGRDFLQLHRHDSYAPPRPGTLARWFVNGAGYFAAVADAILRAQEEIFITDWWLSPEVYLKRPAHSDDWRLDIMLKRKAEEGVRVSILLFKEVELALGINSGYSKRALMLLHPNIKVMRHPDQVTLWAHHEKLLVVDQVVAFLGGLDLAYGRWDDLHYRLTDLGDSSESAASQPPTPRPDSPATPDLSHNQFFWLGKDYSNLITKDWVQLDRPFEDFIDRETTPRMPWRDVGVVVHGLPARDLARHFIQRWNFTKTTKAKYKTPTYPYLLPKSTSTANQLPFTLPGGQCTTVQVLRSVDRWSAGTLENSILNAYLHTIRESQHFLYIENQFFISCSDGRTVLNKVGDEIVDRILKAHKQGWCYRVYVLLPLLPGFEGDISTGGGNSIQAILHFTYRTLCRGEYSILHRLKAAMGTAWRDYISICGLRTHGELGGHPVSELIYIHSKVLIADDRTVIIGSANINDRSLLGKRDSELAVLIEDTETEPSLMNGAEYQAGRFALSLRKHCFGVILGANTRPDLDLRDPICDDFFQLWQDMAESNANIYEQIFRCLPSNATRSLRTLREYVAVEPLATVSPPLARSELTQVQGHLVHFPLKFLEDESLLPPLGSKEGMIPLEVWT
Method in brief: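 Released choline was read by Amplex Red fluorescence coupled to choline oxidase and HRP after a 60 min room-temperature reaction. Substrate was diheptanoyl phosphatidylcholine, added as a 6 mmol/L solution, and enzyme was FLAG-tagged full-length human PLD2 from Expi293F, added as a 6 nmol/L solution. Buffer was 50 mM HEPES pH 7.5 with 5% final DMSO.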

Sequence of full-length human PLD1 (Q13393 other isoform, or with tags, fused parts or gaps): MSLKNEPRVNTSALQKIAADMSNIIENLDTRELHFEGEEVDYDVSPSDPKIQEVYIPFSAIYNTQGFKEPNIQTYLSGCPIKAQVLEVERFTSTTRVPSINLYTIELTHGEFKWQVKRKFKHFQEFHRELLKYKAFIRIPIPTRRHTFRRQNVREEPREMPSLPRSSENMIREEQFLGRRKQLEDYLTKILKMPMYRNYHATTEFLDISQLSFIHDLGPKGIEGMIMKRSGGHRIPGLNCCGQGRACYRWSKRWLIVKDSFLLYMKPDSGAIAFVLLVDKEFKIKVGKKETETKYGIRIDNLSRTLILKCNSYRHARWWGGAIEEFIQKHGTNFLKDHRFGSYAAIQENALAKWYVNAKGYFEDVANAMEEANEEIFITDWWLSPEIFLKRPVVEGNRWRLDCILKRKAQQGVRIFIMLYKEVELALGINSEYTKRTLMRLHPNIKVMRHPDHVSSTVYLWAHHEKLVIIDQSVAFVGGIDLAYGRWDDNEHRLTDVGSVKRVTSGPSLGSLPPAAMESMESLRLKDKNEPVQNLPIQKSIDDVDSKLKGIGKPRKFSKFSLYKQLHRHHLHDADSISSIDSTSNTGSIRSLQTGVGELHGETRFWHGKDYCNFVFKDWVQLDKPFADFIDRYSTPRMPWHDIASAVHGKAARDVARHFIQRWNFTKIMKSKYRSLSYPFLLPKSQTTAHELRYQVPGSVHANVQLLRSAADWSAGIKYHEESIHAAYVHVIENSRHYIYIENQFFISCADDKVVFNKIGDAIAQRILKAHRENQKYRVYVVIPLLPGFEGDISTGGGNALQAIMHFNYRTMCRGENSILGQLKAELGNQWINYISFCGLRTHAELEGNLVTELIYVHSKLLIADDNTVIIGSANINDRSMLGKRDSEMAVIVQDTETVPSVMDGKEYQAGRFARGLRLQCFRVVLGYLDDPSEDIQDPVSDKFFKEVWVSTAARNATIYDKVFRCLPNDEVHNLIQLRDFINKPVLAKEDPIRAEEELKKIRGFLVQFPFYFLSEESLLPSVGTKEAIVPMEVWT

| SMILES | IC50 (full-length human PLD1) [nM] | IC50 (full-length human PLD2) [nM] |
| --- | --- | --- |
| C[C@@H](C[C@H]1CC[C@]2(CC1)OC(=O)NN=C2c1cc(C#N)ccc1Br)NC(=O)c1cc(C2CC2)n[nH]1 [Example 2-069] | < 10 | < 10 |
| C[C@@H](CN1CCC2(CC1)OC(=O)NN=C2c1ccc(C#N)cc1Br)NC(=O)c1cnn(C)c1 [Example 336] | 33 | < 10 |
| CNC(=O)C(=O)N[C@@H](C)C[C@H]1CC[C@]2(CC1)OC(=O)NN=C2c1ccc(-c2ccccc2)cc1-c1ccccc1 [Example 73] | 23 | 15 |
| C[C@@H](C[C@H]1CC[C@]2(CC1)OC(=O)NN=C2c1ccc(C#N)cc1Br)NC(=O)N1CCn2nccc2C1 [Example 270] | 17 | < 10 |
| CNC(=O)C(=O)N[C@@H](C)C[C@H]1CC[C@]2(CC1)OC(=O)NN=C2c1ccc(F)cc1C [Example 55] | 15 | < 10 |
| C[C@H](NC(=O)c1cnn(C)c1)[C@H](C)[C@H]1CC[C@]2(CC1)OC(=O)NN=C2c1cc(C#N)ccc1Br [Example 339] | 39 | 10 |
| Cc1cc(F)ccc1C1=NNC(=O)O[C@]12CC[C@@H](C[C@H](C)NC(=O)N1CC[C@@H](c3ccccc3)C1)CC2 [Example 138] | 774 | 1400 |
| C[C@@H](C[C@H]1CC[C@]2(CC1)OC(=O)NN=C2c1cccc(OC(F)F)c1Br)NC(=O)C(=O)NC1CC1 [Example 308] | 15 | < 10 |
| C[C@@H](C[C@H]1CC[C@]2(CC1)OC(=O)NN=C2c1ccc(F)cc1I)NC(=O)NC1CC1 [Example 245] | 40 | 107 |
| CNC(=O)C(=O)N[C@@H](C)CN1CCC2(CC1)OC(=O)NN=C2c1cc(C(C)(C)O)ccc1Br [Example 2-034] | 31 | 10 |
| C[C@@H](C[C@H]1CC[C@]2(CC1)OC(=O)NN=C2c1ccc(F)cc1Br)NC(=O)C(F)Cl (mixture of isomers) [Example 278] | 246 | 1180 |
| CNC(=O)C(=O)N[C@@H](C)C[C@]1(C#N)CC[C@@]2(CC1)OC(=O)NN=C2c1cc(C(F)(F)F)ccc1Br [Example 2-066] | 15 | < 10 |
| Cc1cc(C(=O)N[C@@H](C)C[C@H]2CC[C@]3(CC2)OC(=O)NN=C3c2ccc(Br)cc2)[nH]n1 [Example 22] | 66 | 49 |
| CNC(=O)C(=O)N[C@@H](C)C[C@H]1CC[C@]2(CC1)OC(=O)NN=C2c1ccc(F)cc1Cl [Example 44] | 18 | < 10 |
| Cc1cc(C(=O)NC[C@@H](C)N2CCC3(CC2)OC(=O)NN=C3c2ccc(C#N)cc2Br)[nH]n1 [Example 332] | 2600 | 15 |
| Cc1cc(C(=O)N[C@@H](C)C[C@H]2CC[C@]3(CC2)OC(=O)NN=C3c2ccc(C(=O)O)cc2C)[nH]n1 [Example 201] | 328 | 371 |
| CNC(=O)C(=O)NC[C@H](C)N1CCC2(CC1)OC(=O)NN=C2c1ccc(C#N)cc1Br [Example 329] | 51 | < 10 |
| CNC(=O)C(=O)N[C@@H](C)C[C@H]1CC[C@]2(CC1)OC(=O)NN=C2c1cnc(N2CC3CCC(C2)O3)cc1Cl [Example 246] | 15 | < 10 |
| CNC(=O)C(=O)N[C@@H](C)C[C@H]1CC[C@]2(CC1)OC(=O)NN=C2c1cnc(C(N)=O)cc1C [Example 187] | 222 | 455 |
| Cc1cc(C(=O)N[C@@H](C)CN2CCC3(CC2)OC(=O)NN=C3c2ccc(F)cc2Br)[nH]n1 [Example 3] | 27 | < 10 |
| Cc1cc(N2CCOCC2)ccc1C1=NNC(=O)O[C@]12CC[C@@H](C[C@H](C)NC(=O)C(=O)NC1CC1)CC2 [Example 218] | 23 | 13 |
| COc1cc(C)c(C2=NNC(=O)O[C@]23CC[C@@H](C[C@H](C)NC(=O)OCc2ccccc2)CC3)cn1 [Example 262] | 15 | < 10 |
| CNC(=O)C(=O)N[C@@H](C)C[C@H]1CC[C@]2(CC1)OC(=O)NN=C2c1cnc(C)cc1Cl [Example 230, N^1—((S)-1-(cis-5-(4-chloro-6-methylpyridin-3-yl)-2-oxo-1-oxa-3,4-diazaspiro[5.5]undec-4-en-9-yl)propan-2-yl)-N^2-methyloxamide] | 21 | < 10 |
| CNC(=O)C(=O)N[C@@H](C)C[C@H]1CC[C@]2(CC1)OC(=O)NN=C2c1cnc(N2CC3CCC(C2)O3)cc1C [Example 269] | 18 | < 10 |
| CNC(=O)C(=O)N[C@@H](C)CN1CCC2(CC1)OC(=O)NN=C2c1cc(C#N)ccc1Cl [Example 2-006] | 56 | 11 |
| Cc1cc(C(=O)N[C@@H](C)C[C@H]2CC[C@]3(CC2)OC(=O)NN=C3c2cccc3c2OCC3)[nH]n1 [Example 107] | 85 | 139 |
| C[C@@H](CN1CCC2(CC1)OC(=O)NN=C2c1ccc(C#N)cc1Br)NC(=O)C(=O)NC1CC1 [Example 2-064] | 27 | 11 |
